The target in this assay is T1, human Nav1.7 (Homo sapiens, UniProt Q15858).
T1 construct: expressed in transfected cells; host or cells: HEK 293
T1 sequence (Q15858 whole entry): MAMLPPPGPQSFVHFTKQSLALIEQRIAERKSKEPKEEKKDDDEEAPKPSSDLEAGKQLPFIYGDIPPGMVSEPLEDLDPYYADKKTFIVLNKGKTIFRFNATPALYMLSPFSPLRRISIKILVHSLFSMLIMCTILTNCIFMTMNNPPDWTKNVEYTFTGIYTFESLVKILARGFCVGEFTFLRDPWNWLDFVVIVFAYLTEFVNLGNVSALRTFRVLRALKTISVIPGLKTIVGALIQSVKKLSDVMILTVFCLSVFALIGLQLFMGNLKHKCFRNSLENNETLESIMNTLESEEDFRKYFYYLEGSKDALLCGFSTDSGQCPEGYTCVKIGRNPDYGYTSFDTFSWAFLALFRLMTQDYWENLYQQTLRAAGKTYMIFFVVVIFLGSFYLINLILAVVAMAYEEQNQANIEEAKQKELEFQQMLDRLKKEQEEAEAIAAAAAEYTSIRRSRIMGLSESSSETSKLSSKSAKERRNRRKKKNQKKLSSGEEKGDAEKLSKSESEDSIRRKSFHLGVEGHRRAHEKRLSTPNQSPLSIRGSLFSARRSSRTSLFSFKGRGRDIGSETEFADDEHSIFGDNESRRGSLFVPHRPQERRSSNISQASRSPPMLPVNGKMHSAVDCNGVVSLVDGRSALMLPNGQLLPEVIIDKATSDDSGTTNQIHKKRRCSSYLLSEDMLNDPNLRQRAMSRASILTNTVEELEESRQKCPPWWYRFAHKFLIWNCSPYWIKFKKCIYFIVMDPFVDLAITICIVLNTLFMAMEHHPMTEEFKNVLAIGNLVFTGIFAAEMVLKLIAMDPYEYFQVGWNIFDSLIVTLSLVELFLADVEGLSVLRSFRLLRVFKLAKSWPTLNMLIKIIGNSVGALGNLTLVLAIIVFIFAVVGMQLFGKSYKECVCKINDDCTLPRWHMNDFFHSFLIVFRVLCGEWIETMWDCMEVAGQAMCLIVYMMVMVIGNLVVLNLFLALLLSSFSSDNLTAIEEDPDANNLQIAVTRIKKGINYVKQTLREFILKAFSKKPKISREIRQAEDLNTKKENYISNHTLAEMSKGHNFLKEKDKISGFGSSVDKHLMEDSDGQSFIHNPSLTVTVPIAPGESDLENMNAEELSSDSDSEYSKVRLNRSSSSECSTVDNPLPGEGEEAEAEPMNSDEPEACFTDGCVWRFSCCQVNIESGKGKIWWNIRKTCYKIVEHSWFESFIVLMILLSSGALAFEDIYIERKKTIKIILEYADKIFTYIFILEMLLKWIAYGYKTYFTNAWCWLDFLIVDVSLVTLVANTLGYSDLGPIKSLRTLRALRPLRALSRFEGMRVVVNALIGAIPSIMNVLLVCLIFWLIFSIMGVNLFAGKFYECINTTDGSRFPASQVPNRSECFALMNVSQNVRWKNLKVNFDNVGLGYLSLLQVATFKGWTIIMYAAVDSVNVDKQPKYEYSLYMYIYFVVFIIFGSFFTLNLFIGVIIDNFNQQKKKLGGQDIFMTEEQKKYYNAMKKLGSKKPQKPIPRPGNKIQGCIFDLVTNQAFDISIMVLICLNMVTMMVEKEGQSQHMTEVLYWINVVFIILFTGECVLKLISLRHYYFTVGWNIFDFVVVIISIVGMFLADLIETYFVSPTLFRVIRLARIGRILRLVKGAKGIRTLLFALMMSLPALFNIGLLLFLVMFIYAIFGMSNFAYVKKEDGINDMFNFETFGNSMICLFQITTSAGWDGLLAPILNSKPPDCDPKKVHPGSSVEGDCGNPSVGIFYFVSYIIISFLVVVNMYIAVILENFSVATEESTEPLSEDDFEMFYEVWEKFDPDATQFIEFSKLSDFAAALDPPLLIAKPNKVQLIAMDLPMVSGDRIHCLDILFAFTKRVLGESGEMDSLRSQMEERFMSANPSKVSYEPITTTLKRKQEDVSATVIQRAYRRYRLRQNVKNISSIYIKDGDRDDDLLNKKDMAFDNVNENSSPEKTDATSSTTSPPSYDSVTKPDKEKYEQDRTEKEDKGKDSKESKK
Put plainly: IonWorks Quattro automated patch-clamp, inactivated state block of Nav1.7. It counts as cell-based. Conditions: channels stably expressed in HEK 293 cells; double-pulse protocol, inactivated state block; read-out: potency for the Nav 1.7 sodium ion channel (IC50, as measured by IonWorks). Here is the method:
Compounds were tested on human Nav1.7 and Nav1.5 channels stably expressed in HEK 293 cells. […] Cells were sealed on a planar substrate using the Population Patch […] (PPC) technology. Electrical access was obtained using both nystatin and amphotericin. A double-pulse protocol was used for the determination of IC50 values for inactivated state block. Nav1.7 and Nav1.5 expressing cells were voltage clamped at −100 mV and −110 mV, respectively. A depolarizing prepulse to −10 mV (Nav1.7) or −30 mV (Nav1.5) for 1000 ms followed by a 10 ms repolarization to −100 mV (Nav1.7) or −110 mV (Nav1.5) was given to generate fractional channel inactivation of 50%, followed by a 10 ms test pulse to −10 mV (Nav1.7) or −30 mV (Nav1.5) to measure peak current in control conditions and after compound addition. The following recording solutions were used (mM). External: 150 NaCl, 2 CaCl2, 5 KCl, 1 Mg Cl2, 10 HEPES, 12 Dextrose; internal: 120 CsF, 30 CsCl, 10 EGTA, 5 HEPES, 5 NaF, 2 MgCl2.
For all electrophysiology experiments, offline analysis was used to determine percent inhibition as a function of drug concentration. IC50 values were determined by fitting to the Hill equation.
Background: Patch clamp records ionic current or voltage across a cell membrane.
The term IC50 denotes the concentration needed to halve the response being measured. In the case of `C[C@@H](CN)NCCCCNc1cc(F)c(S(=O)(=O)Nc2ncns2)cc1Cl` [Ex 16-67, 4-[(4-{[(1S)-2-amino-1-methylethyl]amino}butyl)amino]-5-chloro-2-fluoro-N-1,2,4-thiadiazol-5-ylbenzenesulfonamide], the IC50 worked out at 16 nM.
On to `C[C@@H](CN)NCCCCNc1cc(F)c(S(=O)(=O)Nc2ncc(F)s2)cc1Cl` [Ex 16-66, 4-[(4-{[(1S)-2-amino-1-methylethyl]amino}butyl)amino]-5-chloro-2-fluoro-N-(5-fluoro-1,3-thiazol-2-yl)benzenesulfonamide], for which the IC50 came to 16 nM.
Take `CNCCNCCCCNc1cc(F)c(S(=O)(=O)Nc2ncns2)cc1Br` [Ex 16-90, 5-bromo-2-fluoro-4-[4-[2-(methylamino)ethylamino]butylamino]-N-(1,2,4-thiadiazol-5-yl)benzenesulfonamide]: the IC50 amounted to 5.1 nM.
Consider `O=S(=O)(Nc1ncc(F)s1)c1cc(Br)c(NCCCCN[C@@H]2CCNC2)cc1F` [Ex 16-36, 5-bromo-2-fluoro-N-(5-fluoro-1,3-thiazol-2-yl)-4-({4-[(3R)-pyrrolidin-3-yl-amino]butyl}amino) benzene-sulfonamide], for which the IC50 is 15 nM.
Turning to `O=S(=O)(Nc1nccs1)c1cc(Cl)c(NCCCCNCC2CNC2)cc1F` [Ex 5-03, 4-((4-((azetidin-3-ylmethyl)amino)butyl)amino)-5-chloro-2-fluoro-N-(thiazol-2-yl)benzenesulfonamide], the IC50 was 34 nM.
With `O=S(=O)(Nc1ncns1)c1cc(Cl)c(NCCCCNC2CNC2)cc1F` [Ex 16-01, 4-{[4-(azetidin-3-ylamino)-butyl]-amino}-5-chloro-2-fluoro-N-1,2,4-thiadiazol-5-ylbenzenesulfonamide], the IC50 was determined as 15 nM.
The same measure for `C[C@H](CN)NCCCCNc1cc(F)c(S(=O)(=O)Nc2nccs2)cc1Cl` [Ex 16-08, 4-[(4-{[(1R)-2-amino-1-methylethyl]-amino}butyl)-amino]-5-chloro-2-fluoro-N-1,3-thiazol-2-ylbenzenesulfonamide]: 15 nM; for `C[C@H](N)CNCCCCNc1cc(F)c(S(=O)(=O)Nc2ncns2)cc1Cl` [Ex 15-05, 4-[(4-{[(2S)-2-aminopropyl]amino}butyl)amino]-5-chloro-2-fluoro-N-1,2,4-thiadiazol-5-ylbenzenesulfonamide]: 12 nM; for `CN[C@H](C)CNCCCCNc1cc(F)c(S(=O)(=O)Nc2ncc(F)s2)cc1Cl` [Ex 16-65, 5-chloro-2-fluoro-N-(5-fluoro-1,3-thiazol-2-yl)-4-[(4-{[(2R)-2-(methylamino)propyl]amino}butyl)amino] benzenesulfonamide]: 28 nM.
Regarding `CNCCNCCCCNc1cc(F)c(S(=O)(=O)Nc2ncc(Cl)s2)cc1Cl` [Ex 16-49, 5-chloro-N-(5-chloro-1,3-thiazol-2-yl)-2-fluoro-4-[(4-{[2-(methylamino)ethyl]-amino}butyl)amino] benzene-sulfonamide], the 50% inhibitory concentration (IC50) stood at 14 nM.
Take `O=S(=O)(Nc1ncc(Cl)s1)c1cc(Cl)c(NCCCCNC[C@@H]2CCCN2)cc1F` [Ex 7-9, 5-chloro-N-(5-chloro-1,3-thiazol-2-yl)-2-fluoro-4-[(4-{[(2S)-pyrrolidin-2-ylmethyl]amino}butyl)amino]benzenesulfonamide]: the IC50 worked out at 29 nM.
Take `O=S(=O)(Nc1nccs1)c1cc(Br)c(NCCCCN[C@@H]2CCNC2)cc1F` [Ex 16-37, 5-bromo-2-fluoro-4-({4-[(3R)-pyrrolidin-3-ylamino]-butyl}amino)-N-1,3-thiazol-2-ylbenzenesulfonamide]: the IC50 came out at 19 nM.
`O=S(=O)(Nc1ncc(F)s1)c1cc(Cl)c(NCCCCNC[C@H]2CCN2)cc1F` [Ex 16-73, 4-[(4-{[(2R)-azetidin-2-ylmethyl]amino}butyl)amino]-5-chloro-2-fluoro-N-(5-fluoro-1,3-thiazol-2-yl)benzenesulfonamide]: the IC50 is 19 nM.
For `O=S(=O)(Nc1nccs1)c1cc(Cl)c(NCCCCNC[C@H]2CCCN2)cc1F` [Ex 7-6, (R)-5-chloro-2-fluoro-4-((4-((pyrrolidin-2-ylmethyl)amino)butyl)amino)-N-(thiazol-2-yl)benzenesulfonamide], the IC50 came to 34 nM.
As to `CC(CCCNc1cc(F)c(S(=O)(=O)Nc2nccs2)cc1Cl)NC[C@@H]1CCCN1` (mixture of isomers), the IC50 was 11 nM.
Consider `N[C@H]1CCCC[C@H]1NCCCCNc1cc(F)c(S(=O)(=O)Nc2nccs2)cc1Cl` [Ex 1-30, 4-[(4-{[(1R,2S)-2-aminocyclohexyl]amino}butyl)amino]-5-chloro-2-fluoro-N-1,3-thiazol-2-ylbenzenesulfonamide], for which the IC50 is 19 nM.
For the compound `CC1(NCCCCNc2cc(F)c(S(=O)(=O)Nc3ncns3)cc2Br)CCNC1` (stereo not shown) [Ex 16-96, 5-bromo-2-fluoro-4-[4-[(3-methylpyrrolidin-3-yl)amino]butylamino]-N-(1,2,4-thiadiazol-5-yl)benzenesulfonamide], the concentration for half-maximal inhibition (IC50) came to 15 nM.
Consider `O=S(=O)(Nc1ncns1)c1cc(Cl)c(NCCCCNC[C@@H]2CCCN2)cc1F` [Ex 7-8, 5-chloro-2-fluoro-4-[(4-{[(2S)-pyrrolidin-2-ylmethyl]amino}butyl)amino]-N-1,2,4-thiadiazol-5-ylbenzenesulfonamide], for which the IC50 worked out at 10 nM.
Take `O=S(=O)(Nc1ncns1)c1cc(Cl)c(NCCCCNC[C@H]2CCN2)cc1F` [Ex 13-02, 4-[(4-{[(2R)-azetidin-2-yl-methyl]-amino}butyl)amino]-5-chloro-2-fluoro-N-1,2,4-thiadiazol-5-yl-benzene-sulfonamide]: the IC50 amounted to 14 nM.
Take `CNCCCNCCCCNc1cc(F)c(S(=O)(=O)Nc2ncc(F)s2)cc1Br` [Ex 16-56, 5-bromo-2-fluoro-N-(5-fluoro-1,3-thiazol-2-yl)-4-[(4-{[3-(methylamino)-propyl]amino}butyl)amino]-benzenesulfonamide]: the IC50 stood at 12 nM.
As to `CN(CCN)CCCCNc1cc(F)c(S(=O)(=O)Nc2nccs2)cc1Cl` [Ex 1-15, 4-({4-[(2-aminoethyl) (methyl)amino]butyl}amino)-5-chloro-2-fluoro-N-1,3-thiazol-2-ylbenzenesulfonamide], the IC50 stood at 29 nM.
Consider `O=S(=O)(Nc1nccs1)c1cc(Cl)c(NCCCCNC[C@H]2CCCCN2)cc1F` [Ex 1-05, 5-chloro-2-fluoro-4-[(4-{[(2R)-piperidin-2-ylmethyl]amino}butyl)amino]-N-1,3-thiazol-2-ylbenzenesulfonamide], for which the IC50 came to 10 nM.
As to `NCCCNCCCCNc1cc(F)c(S(=O)(=O)Nc2ncns2)cc1Br` [Ex 16-97, 4-[4-(3-aminopropylamino)butylamino]-5-bromo-2-fluoro-N-(1,2,4-thiadiazol-5-yl)benzenesulfonamide], the IC50 turned out to be 18 nM.
As for `NC1(CNCCCCNc2cc(F)c(S(=O)(=O)Nc3ncc(F)s3)cc2Cl)CC1` [Ex 16-63, 4-[(4-{[(1-aminocyclopropyl)methyl]amino}butyl)amino]-5-chloro-2-fluoro-N-(5-fluoro-1,3-thiazol-2-yl)benzenesulfonamide], the IC50 is 56 nM.
As to `CC(C)(CN)NCCCCNc1cc(F)c(S(=O)(=O)Nc2nccs2)cc1Cl` [Ex 1-10, 4-({4-[(2-amino-1,1-dimethylethyl)amino]-butyl}amino)-5-chloro-2-fluoro-N-1,3-thiazol-2-yl-benzenesulfonamide], the IC50 stood at 28 nM.
Consider `C[C@H](CCN)NCCCCNc1cc(F)c(S(=O)(=O)Nc2ncns2)cc1Cl` [Ex 16-29, 4-[(4-{[(1R)-3-amino-1-methylpropyl]amino}butyl)-amino]-5-chloro-2-fluoro-N-1,2,4-thiadiazol-5-yl-benzenesulfonamide], for which the IC50 was found to be 56 nM.
On to `C[C@H]1CC[C@@H](CNCCCCNc2cc(F)c(S(=O)(=O)Nc3nccs3)cc2Cl)N1` [Ex 8-10, 5-chloro-2-fluoro-4-{[4-({[(2S,5S)-5-methylpyrrolidin-2-yl]-methyl}amino)butyl]amino}-N-1,3-thiazol-2-yl-benzenesulfonamide], for which the IC50 is 16 nM.
The same measure for `O=S(=O)(Nc1ncc(F)s1)c1cc(Cl)c(NCCCCNCC[C@H]2CCCN2)cc1F` [Ex 16-18, 5-chloro-2-fluoro-N-(5-fluoro-1,3-thiazol-2-yl)-4-{[4-({2-[(2R)-pyrrolidin-2yl]-ethyl}amino)butyl]-amino} benzenesulfonamide]: 18 nM; for `C[C@H](CN)NCCCCNc1cc(F)c(S(=O)(=O)Nc2ncns2)cc1Cl` [Ex 16-60, 4-[(4-{[(1R)-2-amino-1-methylethyl]amino}butyl)-amino]-5-chloro-2-fluoro-N-1,2,4-thiadiazol-5-yl-benzenesulfonamide]: 11 nM.
With `O=S(=O)(Nc1ncns1)c1cc(Cl)c(NCCCCNC[C@H]2CCCCN2)cc1F` [Ex 16-15, 5-chloro-2-fluoro-4-[(4-{[(2R)-piperidin-2-yl-methyl]amino}butyl)-amino]-N-1,2,4-thiadiazol-5-yl-benzenesulfonamide], the IC50 was 5.1 nM.
The same measure for `C[C@@H](N)CCNCCCCNc1cc(F)c(S(=O)(=O)Nc2nccs2)cc1Cl` [Ex 16-34, 4-[(4-{[(3R)-3-aminobutyl]-amino}butyl)amino]-5-chloro-2-fluoro-N-1,3-thiazol-2-ylbenzene-sulfonamide]: 29 nM.

Values taken from patent US10519147B2 (Merck Sharp & Dohme Corp., priority 2015, dated 2019).
